Results from PubChem BioAssay (NCI).
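Compound exposure: 48 hours, 5 concentrations, 96-well plates. At the TGI there is no net growth.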

How the values were obtained:
Experiment in all cases: NCI anticancer screen, dose series, 48 h
786-0 renal = tested on: 786-0 renal
ACHN renal = tested on: ACHN renal
CCRF-CEM leukemia = tested on: CCRF-CEM leukemia
COLO 205 colon = tested on: COLO 205 colon
EKVX NSCLC = tested on: EKVX NSCLC
K-562 leukemia = tested on: K-562 leukemia
MDA-N = tested on: MDA-N
OVCAR-4 ovarian = tested on: OVCAR-4 ovarian
OVCAR-5 ovarian = tested on: OVCAR-5 ovarian
RPMI-8226 leukemia = tested on: RPMI-8226 leukemia
SF-539 CNS = tested on: SF-539 CNS

SMILES	TGI (786-0 renal) [µM]	TGI (ACHN renal) [µM]	TGI (CCRF-CEM leukemia) [µM]	TGI (COLO 205 colon) [µM]	TGI (EKVX NSCLC) [µM]	TGI (K-562 leukemia) [µM]	TGI (MDA-N) [µM]	TGI (OVCAR-4 ovarian) [µM]	TGI (OVCAR-5 ovarian) [µM]	TGI (RPMI-8226 leukemia) [µM]	TGI (SF-539 CNS) [µM]
CN1CCCN2CCN(C)CCN(CC1)CC2	> 100	> 100	> 100	> 100	> 100	> 100	> 100	> 100	> 100	> 100	> 100
O=C(c1ccccc1)c1ccc(C(c2c(O)c3ccccc3oc2=O)c2c(O)c3ccccc3oc2=O)cc1	48.9	48.6	> 81.2	> 73	72.3	> 72.1	> 71.7	82.9	51.4	60.9	> 100
CCOC(=O)CN1CCNCCN(CC(=O)OCC)CCNCC1	> 100	> 100	> 100	> 100	> 100	> 100	> 100	> 100	> 100	> 100	> 100
CCOC(=O)c1c(C)n(Cc2ccccc2)c(=O)c2ccccc2c(=O)c2c(=O)ccc(=O)c1=2	75.3	77.1	> 100	> 100	> 100	> 100	> 100	> 100	> 100	67.3	> 100
CCOc1c2ccsc2c(OCC)c2ccsc12	> 100	> 100	> 100	> 41.1	> 100	> 100	4.83	> 100	> 100	> 100	9.79
COC(=O)c1ccccc1C1CN=NC12Cc1ccc3ccccc3c1C2=O (centres undefined)	> 100	> 100	> 100	> 100	> 100	> 100	> 100	> 100	> 100	> 100	> 100
CCN(CC)CCn1c(C(C)(C)C)nc2ccccc21	> 100	> 100	> 100	> 100	> 100	> 100	> 100	> 100	> 100	> 100	> 100
CN(C)c1nc(N(C)C)nc(N(C)C)n1	> 150	> 150	> 150	> 150	> 150	> 150	> 150	> 143	> 150	> 150	> 142
COc1cc(NS(C)(=O)=O)ccc1NCc1cnc2ccc3[nH]c(C)ccc3c12	> 100	> 100	67.2	> 100	> 100	62.2	> 100	> 100	> 100	45.2	> 100
C/C(=N/NC(=S)Nc1ccccc1Cl)c1ccccn1	15.8	8.59	1.1	2.54	7.15	3.25	19.7	14.5	5.26	47.3	7.56
CC1=C(/C=C/C(C)=C/C=C/C(C)=C/C(=O)OCC2OC(n3cc(F)c(=O)[nH]c3=O)CC2OC(=O)/C=C(C)/C=C/C=C(C)/C=C/C2=C(C)CCCC2(C)C)C(C)(C)CCC1 (centres undefined)	> 46.1	> 48.3	> 28.8	> 60.1	> 100	> 72.5	> 48.4	> 81.8	> 67.6	42.6	> 100
CCOC(=O)c1cc2cc(N(C(C)=O)C(C)=O)ccc2s1	> 100	62.3	> 100	> 100	55.9	87	> 100	> 100	73.8	45.3	92.3
CC/C(=N\NC(=O)c1cccnc1)c1ccc2c(c1)OCCO2	> 100	> 100	> 100	> 100	> 100	> 100	> 100	> 100	> 100	> 100	> 100
c1ccc2c(c1)ccc1nc(-c3ccc4c(c3)OCO4)c3c(c12)CCCC3	> 100	> 100	> 100	41.7	> 100	> 100	> 100	64.8	> 100	> 100	34.2
CCOC(=O)CC(=O)NC1CC2CCC1(C)C2(C)C (centres undefined)	> 100	> 100	> 100	> 100	> 100	> 100	> 100	> 100	> 100	> 100	> 100
Cc1ccc(/C=C2\CN(C)CC3=C2OC(N)=C(C#N)C3c2ccc(C)cc2)cc1 (centres undefined)	32	50	22	> 69.3	56.5	> 100	38.1	34	55.7	> 48.7	> 100
CNc1ncnc(Sc2nc(N)nc3nc[nH]c23)c1[N+](=O)[O-]	16.5	14.7	0.892	5.53	47	5.66	14.9	18.7	> 77.4	1.79	28.9
Cc1c(N2C(=O)/C(=C/C=C/c3ccccc3)N=C2c2ccccc2)c(=O)n(-c2ccccc2)n1C	> 100	34.1	99.2	30.3	36.5	75	38.3	50.3	51.7	47.6	47.1
Brc1cccc(/C=C/CN2CCN(CCOC(c3ccccc3)c3ccccc3)CC2)c1	31.7	33.1	29.5	36.2	40.8	28.6	32.9	25.2	34.7	19.4	32.4
OC1(c2ccccc2)CC2CCC(C1)N2CCc1ccccc1 (centres undefined)	> 100	> 100	> 100	35.7	> 100	> 100	> 100	> 100	> 100	> 100	> 100
C=C(O)c1ccccc1C#Cc1ccccc1C(=O)OC	> 10	> 10	> 10	> 10	> 10	> 10	> 10	> 10	> 10	> 10	> 10
C[C@]12CC[C@@H]3c4ccc(O)cc4CC[C@H]3[C@@H]1C/C(=C\c1ccc([N+](=O)[O-])cc1)C2=O	> 100	> 100	> 100	> 100	> 100	> 100	> 100	> 100	> 100	> 100	75
CCOC(=O)c1nc2cc(N3CCOCC3)c(F)cc2[nH]c1=O	> 100	> 100	> 100	> 100	> 100	> 100	> 100	> 100	> 100	> 100	> 100
Cc1ccc(-c2c(C#N)c(-c3ccc(Cl)cc3)c(C#N)c(=O)n2NS(=O)(=O)c2ccccc2)cc1	> 100	> 100	> 100	> 100	> 100	> 100	> 100	> 100	> 100	51.6	> 100
